These are literature values, as cited in PMC8435859 (Frontiers in Cellular and Infection Microbiology, 2021).

SMILES strings stand for the structures. In brackets after ≈: the same amount, converted by molar mass. Structures can show the parent of a compound that is named as a salt.

Series [1] concerns IL-1β. Details: method as in ref Singh B, et al. Natural Product Research, 2013, 27(23):2227-2230. Conditions: anti-inflammatory activity; ref Singh B, et al. Natural Product Research, 2013, 27(23):2227-2230.; read-out: IC50, inhibition of IL-1β; cited from earlier work.
The test system of series [2] is TNF-α. Further details: method as in ref Singh B, et al. Natural Product Research, 2013, 27(23):2227-2230. Conditions: anti-inflammatory activity; ref Singh B, et al. Natural Product Research, 2013, 27(23):2227-2230.; read-out: IC50, inhibition of TNF-α; cited from earlier work.
Series [3] has as its system CYP2B6. Further details: method as in ref Cheng SenSung et al., Journal of Agricultural & Food Chemistry, 2012, 60(1):124-8. Conditions: ref Cheng SenSung et al., Journal of Agricultural & Food Chemistry, 2012, 60(1):124-8; read-out: Ki, CYP2B6 inhibition; cited from earlier work.
Series [4] concerns CYP3A4. Further details: method as in ref Cheng SenSung et al., Journal of Agricultural & Food Chemistry, 2012, 60(1):124-8. Conditions: ref Cheng SenSung et al., Journal of Agricultural & Food Chemistry, 2012, 60(1):124-8; read-out: Ki, CYP3A4 inhibition; cited from earlier work.
For series [5], the system named is EV71. The settings on record: ref Choi HJ et al., Biomol Ther (Seoul). 2016 Sep 1;24(5):552-8; cited from earlier work.
Series [6] relates to MDA-MB-231. Details: method as in ref Sales SM et al., Biomedicine & Pharmacotherapy, 2018, 103:1577-1584. Conditions: one value printed for MCF-7 & MDA-MB-231; ref Sales SM et al., Biomedicine & Pharmacotherapy, 2018, 103:1577-1584; read-out: IC50, decreased MDA-MB-231 survival; cited from earlier work.
The subject of series [7] is H. pylori. Further details: method as in ref Sales SM et al., Biomedicine & Pharmacotherapy, 2018, 103:1577-1584. Conditions: ref Sales SM et al., Biomedicine & Pharmacotherapy, 2018, 103:1577-1584; cited from earlier work.
Series [8] concerns MCF-7. Details: method as in ref Sales SM et al., Biomedicine & Pharmacotherapy, 2018, 103:1577-1584. The settings on record: one value printed for MCF-7 & MDA-MB-231; ref Sales SM et al., Biomedicine & Pharmacotherapy, 2018, 103:1577-1584; read-out: IC50, decreased MCF-7 survival; cited from earlier work.
Series [9] has as its system PGE2 production. Further details: method as in Kim HJ, et al. Arch Pharm Res. 2016 Feb;39(2):231-239. Conditions: ref Kim HJ, et al. Arch Pharm Res. 2016 Feb;39(2):231-239.; read-out: IC50, inhibitory effect on PGE2 production; cited from earlier work.
The test system of series [10] is GABA uptake. Further details: method as in Johnston G A R et al., Nature. The settings on record: ref Johnston G A R et al., Nature; read-out: IC50, inhibition of GABA uptake; cited from earlier work.

Usually IC50 stands for the concentration at which inhibition is half-maximal. Consider `COc1cc2oc(-c3ccccc3)cc(=O)c2c(O)c1OC` [MOSLOFLAVONE], for which the figures for the half-maximal inhibitory concentration (IC50) in series [1] and in series [2] were 7.8 µM and 710 nM, respectively.

For orientation: Ki means the equilibrium dissociation constant of an inhibitor or competing ligand from its target. `C[C@@H]1CC[C@H]2C(C)(C)[C@H]3C[C@@]12CC[C@@]3(C)O` [Cedrol]: the Ki in series [3] was 900 nM; in series [4] it was 3.4 µM. Take `O=c1cc(-c2ccccc2)oc2c(O)c(O)cc(O)c12` [Norwogonin]: the “IC50, antiviral activity against Enterovirus 71” value in [5] was “Norwogonin, isolated from Scutellaria baicalensis Georgi, possesses antiviral activity against Enterovirus 71 (IC50: 31.83 μg/ml)”. Take `CCCCCCCCOC(=O)c1cc(O)c(O)c(O)c1` [Octyl gallate]: the IC50 in series [6] and in [8] was 40 µM in each case. In series [7], the “minimum inhibitory concentration (MIC) against H. pylori” value is 125 µg/mL (≈ 443 µM). `CC(C)=CCc1cc2ccc(=O)oc2cc1O` [7-demethylsuberosin]: in [9], the IC50 was 9.42 µM.

Take `O=C(O)C1=CCCNC1` [Guvacine hydrochloride]: the IC50 in series [10] is 10 µM.
